Assay results as given in patent publication US20260001928A1 (CORTERIA PHARMACEUTICALS, priority 2022, published 2026).
*1 amine or outer side, *2 acyl side, *3 side chain or, on linkers, in order; H or OH if unused. Where a SMILES comes first, the peptide text is derived from it. Side-chain parts run from the residue outwards. [ ]: non-standard residue; d: D form. The star is where a group is joined. C16 diacid = O=C(O)CCCCCCCCCCCCCCC(=O)*; γGlu = O=C(O)[C@H](CCC(=O)[*:2])N[*:1]; NMeI = CC[C@H](C)[C@H](NC)C(=O)O; αMeL = CC(C)C[C@](C)(N)C(=O)O; Abu = CC[C@H](N)C(=O)O; Aib = CC(C)(N)C(=O)O

Experiments:
[1] = biological target: T1, human CRF2a receptor (Homo sapiens, UniProt Q13324); assay: Activity at human CRF2a receptor, cAMP functional assay in TeloHEAC cells; type: cell-based; settings: TeloHEAC cells stably expressing human CRF2a receptor, relative to urocortin 2 (100 nM = 100%)
T1 construct: expressed in transfected cells; host or cells: TeloHEAC cells
T1 sequence (Q13324 1-411): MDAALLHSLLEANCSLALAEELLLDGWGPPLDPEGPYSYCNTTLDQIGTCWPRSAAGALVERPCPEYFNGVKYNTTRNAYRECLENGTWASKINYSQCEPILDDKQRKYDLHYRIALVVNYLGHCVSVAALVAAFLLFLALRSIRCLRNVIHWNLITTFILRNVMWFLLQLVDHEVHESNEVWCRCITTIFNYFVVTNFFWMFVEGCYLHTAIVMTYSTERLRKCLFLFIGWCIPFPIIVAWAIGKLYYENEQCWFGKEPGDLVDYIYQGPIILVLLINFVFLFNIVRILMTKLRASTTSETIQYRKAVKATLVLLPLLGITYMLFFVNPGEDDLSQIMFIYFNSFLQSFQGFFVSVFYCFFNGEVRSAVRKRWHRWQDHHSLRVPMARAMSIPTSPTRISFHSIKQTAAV
Procedure, shortened: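 cAMP accumulation was measured by HTRF 665/620 nm ratio after 30 min at 37° C compound exposure (16 twofold dilutions) of CRF2a-expressing TeloHEAC cells, 10000/well, in HEPES-buffered HBSS plus IBMX. Activity was normalised to urocortin 2 at 100 nM (100%), and EC50 was the concentration giving half-maximal activation.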

[2] = biological target: T2, CFR1R receptor (Homo sapiens, UniProt P34998); assay: Activity at anti-target CFR1R receptor, cAMP assay in CRF1R-overexpression CHO-K1 cells; type: cell-based; settings: 100% = Sauvagine at 100 nM; for EC50: cAMP
T2 construct: host or cells: CHO-K1 (clone 2)
T2 sequence (P34998 24-415): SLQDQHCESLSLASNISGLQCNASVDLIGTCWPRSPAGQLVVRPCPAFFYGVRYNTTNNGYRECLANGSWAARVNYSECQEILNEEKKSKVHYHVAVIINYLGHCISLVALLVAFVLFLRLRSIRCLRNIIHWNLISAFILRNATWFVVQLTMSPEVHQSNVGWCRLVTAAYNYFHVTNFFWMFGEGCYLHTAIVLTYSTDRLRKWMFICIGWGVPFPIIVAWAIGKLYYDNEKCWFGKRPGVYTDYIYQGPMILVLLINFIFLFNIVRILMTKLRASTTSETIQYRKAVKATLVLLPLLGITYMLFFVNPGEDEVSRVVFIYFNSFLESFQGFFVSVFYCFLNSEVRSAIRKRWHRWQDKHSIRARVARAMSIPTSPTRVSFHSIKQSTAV
Procedure, shortened: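 The method mirrors that used with TeloHAEC cells. Here, thawed clone 2 cells seeded at 4000 cells/well are tested, and 100 nM Sauvagine sets the top of the activation scale.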

EC50 [1] [nM]	Emax (% I) [2] [% I]	EC50 [2] [nM]	SMILES
0.1	10	> 250	CC[C@H](C)[C@H](NC)C(=O)N[C@H](C(=O)N[C@@H](CC(C)C)C(=O)N[C@@H](CO)C(=O)N[C@@H](CC(C)C)C(=O)N[C@@H](CC(=O)O)C(=O)N[C@@H](C(=O)N1CCC[C@H]1C(=O)N[C@H](C(=O)N[C@@H](CCCCN)C(=O)N[C@@](C)(CC(C)C)C(=O)N[C@@H](CCCCNC(=O)CC[C@H](NC(=O)CCCCCCCCCCCCCCC(=O)O)C(=O)O)C(=O)N[C@@H](CCCCN)C(=O)N[C@H](C(=O)N[C@@H](CC(C)C)C(=O)N[C@@H](CC(C)C)C(=O)N[C@@H](CCC(=O)O)C(=O)N[C@@H](CCC(N)=O)C(=O)N[C@@H](CCC(=O)O)C(=O)N[C@@H](CCCCN)C(=O)N[C@@H](CCC(N)=O)C(=O)N[C@@H](CCCCN)C(=O)N[C@@H](CCCCN)C(=O)N[C@@H](CCC(N)=O)C(=O)N[C@@H](CCCNC(=N)N)C(=O)N[C@@H](CCC(=O)O)C(=O)N[C@@H](CCC(N)=O)C(=O)N[C@@H](C)C(=O)N[C@@H](CCC(=O)O)C(=O)N[C@H](C(=O)N[C@@H](CC(N)=O)C(=O)NC(C)(C)C(=O)N[C@@H](CCC(N)=O)C(=O)N[C@H](C(=O)N[C@@H](CC(C)C)C(=O)N[C@@H](C)C(=O)N[C@@H](CCC(N)=O)C(=O)N[C@H](C(N)=O)C(C)C)[C@@H](C)CC)[C@@H](C)O)[C@@H](C)CC)[C@@H](C)CC)C(C)C)C(C)C [compound 65] (H-[NMeI]VLSLD[dV]PIK[αMeL]K([γGlu-C16 diacid])KILLEQEKQKKQREQAETN[Aib]QILAQV-NH2)
1.05	4	> 250	CC[C@H](C)[C@H](NC)C(=O)N[C@H](C(=O)N[C@@H](CC(C)C)C(=O)N[C@@H](CO)C(=O)N[C@@H](CC(C)C)C(=O)N[C@@H](CC(=O)O)C(=O)N[C@@H](C(=O)N1CCC[C@H]1C(=O)N[C@H](C(=O)N[C@@H](CCCCN)C(=O)N[C@@H](CC(C)C)C(=O)N[C@@H](CCCCNC(=O)CC[C@H](NC(=O)CCCCCCCCCCCCCCC(=O)O)C(=O)O)C(=O)N[C@@H](CCCCN)C(=O)N[C@H](C(=O)N[C@@H](CC(C)C)C(=O)N[C@@H](CC(C)C)C(=O)N[C@@H](CCC(=O)O)C(=O)N[C@@H](CCC(N)=O)C(=O)N[C@@H](CCC(=O)O)C(=O)N[C@@H](CCCCN)C(=O)N[C@@H](CCC(N)=O)C(=O)N[C@@H](CCCCN)C(=O)N[C@@H](CCCCN)C(=O)N[C@@H](CCC(N)=O)C(=O)N[C@@H](CCCNC(=N)N)C(=O)N[C@@H](CCC(=O)O)C(=O)N[C@@H](CCC(N)=O)C(=O)N[C@@H](C)C(=O)N[C@@H](CCC(=O)O)C(=O)N[C@H](C(=O)N[C@@H](CC(N)=O)C(=O)N[C@H](C(=O)N[C@@H](CCC(N)=O)C(=O)N[C@H](C(=O)N[C@@H](CC(C)C)C(=O)N[C@@H](C)C(=O)N[C@@H](CCC(N)=O)C(=O)N[C@H](C(N)=O)C(C)C)[C@@H](C)CC)C(C)C)[C@@H](C)O)[C@@H](C)CC)[C@@H](C)CC)C(C)C)C(C)C [compound 66] (H-[NMeI]VLSLD[dV]PIKLK([γGlu-C16 diacid])KILLEQEKQKKQREQAETNVQILAQV-NH2)
0.34	8	> 250	CC[C@H](C)[C@H](NC)C(=O)N[C@H](C(=O)N[C@@H](CC(C)C)C(=O)N[C@@H](CO)C(=O)N[C@@H](CC(C)C)C(=O)N[C@@H](CC(=O)O)C(=O)N[C@@H](C(=O)N1CCC[C@H]1C(=O)N[C@H](C(=O)N[C@@H](CCCCN)C(=O)N[C@@](C)(CC(C)C)C(=O)N[C@@H](CCCCNC(=O)CC[C@H](NC(=O)CCCCCCCCCCCCCCC(=O)O)C(=O)O)C(=O)N[C@@H](CCCCN)C(=O)N[C@H](C(=O)N[C@@H](CC(C)C)C(=O)N[C@@H](CC(C)C)C(=O)N[C@@H](CCC(=O)O)C(=O)N[C@@H](CCC(N)=O)C(=O)N[C@@H](CCC(=O)O)C(=O)N[C@@H](CCCCN)C(=O)N[C@@H](CCC(N)=O)C(=O)N[C@@H](CCCCN)C(=O)N[C@@H](CCCCN)C(=O)N[C@@H](CCC(N)=O)C(=O)N[C@@H](CCCNC(=N)N)C(=O)N[C@@H](CCC(=O)O)C(=O)N[C@@H](CCC(N)=O)C(=O)N[C@@H](C)C(=O)N[C@@H](CCC(=O)O)C(=O)N[C@H](C(=O)N[C@@H](CC(N)=O)C(=O)N[C@H](C(=O)N[C@@H](CCC(N)=O)C(=O)N[C@H](C(=O)N[C@@H](CC(C)C)C(=O)N[C@@H](C)C(=O)N[C@@H](CCC(N)=O)C(=O)N[C@H](C(N)=O)C(C)C)[C@@H](C)CC)C(C)C)[C@@H](C)O)[C@@H](C)CC)[C@@H](C)CC)C(C)C)C(C)C [compound 67] (H-[NMeI]VLSLD[dV]PIK[αMeL]K([γGlu-C16 diacid])KILLEQEKQKKQREQAETNVQILAQV-NH2)
0.05	8	> 250	CC[C@H](C)[C@H](NC)C(=O)N[C@H](C(=O)N[C@@H](CC(C)C)C(=O)N[C@@H](CO)C(=O)N[C@@H](CC(C)C)C(=O)N[C@@H](CC(=O)O)C(=O)N[C@@H](C(=O)N1CCC[C@H]1C(=O)N[C@H](C(=O)N[C@@H](CCCCN)C(=O)N[C@@H](CC(C)C)C(=O)N[C@@H](CCCCNC(=O)CC[C@H](NC(=O)CCCCCCCCCCCCCCC(=O)O)C(=O)O)C(=O)N[C@@H](CCCCN)C(=O)N[C@H](C(=O)N[C@@H](CC(C)C)C(=O)N[C@@H](CC(C)C)C(=O)N[C@@H](CCC(=O)O)C(=O)N[C@@H](CCC(N)=O)C(=O)N[C@@H](CCC(=O)O)C(=O)N[C@@H](CCCCN)C(=O)N[C@@H](CCC(N)=O)C(=O)N[C@@H](CCCCN)C(=O)N[C@@H](CCCCN)C(=O)N[C@@H](CCC(N)=O)C(=O)N[C@@H](CCCNC(=N)N)C(=O)N[C@@H](CCC(=O)O)C(=O)N[C@@H](CCC(N)=O)C(=O)N[C@@H](C)C(=O)N[C@@H](CCC(=O)O)C(=O)N[C@H](C(=O)N[C@@H](CC(N)=O)C(=O)N[C@@H](C)C(=O)N[C@@H](CCC(N)=O)C(=O)N[C@H](C(=O)N[C@@H](CC(C)C)C(=O)N[C@@H](C)C(=O)N[C@@H](CCC(N)=O)C(=O)N[C@H](C(N)=O)C(C)C)[C@@H](C)CC)[C@@H](C)O)[C@@H](C)CC)[C@@H](C)CC)C(C)C)C(C)C [compound 68] (H-[NMeI]VLSLD[dV]PIKLK([γGlu-C16 diacid])KILLEQEKQKKQREQAETNAQILAQV-NH2)
0.09	3	> 250	CC[C@H](NC(=O)[C@H](CC(N)=O)NC(=O)[C@@H](NC(=O)[C@H](CCC(=O)O)NC(=O)[C@H](C)NC(=O)[C@H](CCC(N)=O)NC(=O)[C@H](CCC(=O)O)NC(=O)[C@H](CCCNC(=N)N)NC(=O)[C@H](CCC(N)=O)NC(=O)[C@H](CCCCN)NC(=O)[C@H](CCCCN)NC(=O)[C@H](CCC(N)=O)NC(=O)[C@H](CCCCN)NC(=O)[C@H](CCC(=O)O)NC(=O)[C@H](CCC(N)=O)NC(=O)[C@H](CCC(=O)O)NC(=O)[C@H](CC(C)C)NC(=O)[C@H](CC(C)C)NC(=O)[C@@H](NC(=O)[C@H](CCCCN)NC(=O)[C@H](CCCCNC(=O)CC[C@H](NC(=O)CCCCCCCCCCCCCCC(=O)O)C(=O)O)NC(=O)[C@H](CC(C)C)NC(=O)[C@H](CCCCN)NC(=O)[C@@H](NC(=O)[C@@H]1CCCN1C(=O)[C@H](NC(=O)[C@H](CC(=O)O)NC(=O)[C@H](CC(C)C)NC(=O)[C@H](CO)NC(=O)[C@H](CC(C)C)NC(=O)[C@@H](NC(=O)[C@@H](NC)[C@@H](C)CC)C(C)C)C(C)C)[C@@H](C)CC)[C@@H](C)CC)[C@@H](C)O)C(=O)N[C@@H](CCC(N)=O)C(=O)N[C@H](C(=O)N[C@@H](CC(C)C)C(=O)N[C@@H](C)C(=O)N[C@@H](CCC(N)=O)C(=O)N[C@H](C(N)=O)C(C)C)[C@@H](C)CC [compound 69] (H-[NMeI]VLSLD[dV]PIKLK([γGlu-C16 diacid])KILLEQEKQKKQREQAETN[Abu]QILAQV-NH2)
